# Experimental data taken from ChEMBL document CHEMBL3046363, “Synthesis, fungicidal, and insecticidal activities of beta-Methoxyacrylate-containing N-acetyl pyrazoline derivatives” (J Agric Food Chem, 2008).
# The source made the active and inactive calls. The calls are words filed in the database; no cut-off is given here.
# How the values were obtained:
# Podosphaera fuliginea [1] = experiment: In vivo fungicidal activity against Podosphaera fuliginea infected cucumber plants assessed as inhibition of disease symptoms treated one day prior to fungal spore inoculation measured after one week; format: functional, organism-based
# [2] = test system: Pseudoperonospora cubensis; experiment: In vivo fungicidal activity against Pseudoperonospora cubensis infected in cucumber plants assessed as inhibition of disease symptoms treated one day prior to fungal spore inoculation measured after one week; format: functional, organism-based
# Podosphaera fuliginea [3] = experiment: In vivo fungicidal activity against Podosphaera fuliginea infected cucumber plants assessed as inhibition of disease symptoms at 200 ug/ml treated one day prior to fungal spore inoculation measured after one week; format: functional
# [4] = test system: Pseudoperonospora cubensis; experiment: In vivo fungicidal activity against Pseudoperonospora cubensis infected in cucumber plants assessed as inhibition of disease symptoms at 200 ug/ml treated one day prior to fungal spore inoculation measured after one week; format: functional
# Mythimna separata [5] = experiment: In vivo insecticidal activity against Mythimna separata (Oriental armyworm) assessed as mortality at 500 ug/ml after 72 hr; format: functional
# Tetranychus cinnabarinus = experiment: In vivo insecticidal activity against Tetranychus cinnabarinus (carmine spider mite) assessed as mortality at 500 ug/ml after 72 hr; format: functional
# Botrytis cinerea = experiment: In vivo fungicidal activity against Botryotinia fuckeliana infected in cucumber plants assessed as inhibition of disease symptoms at 200 ug/ml treated one day prior to fungal spore inoculation measured after one week; format: functional, organism-based
# Rhizoctonia solani = experiment: In vivo fungicidal activity against Rhizoctonia solani infected in cucumber plants assessed as inhibition of disease symptoms at 200 ug/ml treated one day prior to fungal spore inoculation measured after one week; format: functional, organism-based
# Mythimna separata [6] = experiment: In vivo insecticidal activity against Mythimna separata (Oriental armyworm) assessed as mortality after 72 hr; format: functional
# Aphis medicaginis = experiment: In vivo insecticidal activity against Aphis medicaginis assessed as mortality at 1 g/l after 72 hr; format: functional, organism-based
# Nilaparvata lugens = experiment: In vivo insecticidal activity against fifth instar larval stage of Nilaparvata lugens (brown planthopper) in […] rice seedlings assessed as mortality at 1 g/l treated for 5 secs before larval infestation measured after 72 hr; format: functional, organism-based
SMILES,IC50 (Podosphaera fuliginea [1]),IC50 [2],inhibition in vivo at 200 µg/mL (Podosphaera fuliginea [3]),inhibition in vivo at 200 µg/mL [4],mortality at 500 µg/mL (Mythimna separata [5]),mortality at 500 µg/mL (Tetranychus cinnabarinus),inhibition (Botrytis cinerea),inhibition (Rhizoctonia solani),LC50 (Mythimna separata [6]),mortality (Aphis medicaginis),mortality (Nilaparvata lugens)
CO/N=C(/C(=O)OC)c1ccccc1COc1ccccc1C [KRESOXIM-METHYL],1.6 µg/mL,24.1 µg/mL,100%,≥ 90%,–,–,–,–,–,–,–
CO/C=C(/C(=O)OC)c1ccccc1COc1cccc(C2=NN(C(C)=O)C(c3ccc(C)cc3)C2)c1 (centres undefined),–,–,< 60%,100%,≥ 90%,< 60%,inactive,inactive,–,–,–
CCOCn1c(-c2ccc(Cl)cc2)c(C#N)c(Br)c1C(F)(F)F [CHLORFENAPYR],–,–,–,–,100%,–,–,–,18.5 µg/mL,–,–
CO/C=C(/C(=O)OC)c1ccccc1COc1cccc(C2=NN(C(C)=O)C(c3cccs3)C2)c1 (centres undefined),–,–,< 60%,100%,–,–,inactive,inactive,–,–,–
CO/C=C(/C(=O)OC)c1ccccc1COc1cccc(C2=NN(C(C)=O)C(c3ccc4c(c3)OCO4)C2)c1 (centres undefined),57.6 µg/mL,26.6 µg/mL,≥ 90%,100%,100%,< 60%,inactive,inactive,26.6 µg/mL,inactive,inactive
CO/C=C(/C(=O)OC)c1ccccc1COc1ccccc1C1=NN(C(C)=O)C(c2ccc(Cl)cc2)C1 (centres undefined),–,–,< 60%,< 60%,–,–,inactive,inactive,–,–,–
CO/C=C(/C(=O)OC)c1ccccc1COc1ccc(C2=NN(C(C)=O)C(c3ccc(C)cc3)C2)cc1 (centres undefined),–,–,< 60%,< 60%,–,–,inactive,inactive,–,–,–
CO/C=C(/C(=O)OC)c1ccccc1COc1ccc(C2=NN(C(C)=O)C(c3ccc(C)c(C)c3)C2)cc1 (centres undefined),–,–,< 60%,< 60%,–,–,inactive,inactive,–,–,–
CO/C=C(/C(=O)OC)c1ccccc1COc1ccc(C2=NN(C(C)=O)C(c3cccc(F)c3)C2)cc1 (centres undefined),–,–,< 60%,< 60%,–,–,inactive,inactive,–,–,–
CO/C=C(/C(=O)OC)c1ccccc1COc1ccc(C2=NN(C(C)=O)C(c3cc(OC)c(OC)c(OC)c3)C2)cc1 (centres undefined),–,–,< 60%,< 60%,–,–,inactive,inactive,–,–,–
CO/C=C(/C(=O)OC)c1ccccc1COc1ccc(C2=NN(C(C)=O)C(c3ccccc3F)C2)cc1 (centres undefined),–,–,< 60%,< 60%,–,–,inactive,inactive,–,–,–
CCc1ccc(C2CC(c3ccc(OCc4ccccc4/C(=C\OC)C(=O)OC)cc3)=NN2C(C)=O)cc1 (centres undefined),–,–,< 60%,100%,–,–,inactive,inactive,–,–,–
CO/C=C(/C(=O)OC)c1ccccc1COc1cccc(C2=NN(C(C)=O)C(c3cccc(F)c3)C2)c1 (centres undefined),–,–,< 60%,< 60%,–,–,inactive,inactive,–,–,–
CO/C=C(/C(=O)OC)c1ccccc1COc1ccccc1C1=NN(C(C)=O)C(c2cccc(OC)c2)C1 (centres undefined),–,–,< 60%,< 60%,–,–,inactive,inactive,–,–,–
CO/C=C(/C(=O)OC)c1ccccc1COc1ccc(C2=NN(C(C)=O)C(c3ccc(F)cc3)C2)cc1 (centres undefined),–,–,< 60%,< 60%,–,–,inactive,inactive,–,–,–
CCOc1ccc(C2CC(c3cccc(OCc4ccccc4/C(=C\OC)C(=O)OC)c3)=NN2C(C)=O)cc1 (centres undefined),–,–,< 60%,100%,–,–,inactive,inactive,–,–,–
CO/C=C(/C(=O)OC)c1ccccc1COc1ccc(C2=NN(C(C)=O)C(c3ccc(Cl)cc3)C2)cc1 (centres undefined),–,–,< 60%,100%,–,–,inactive,inactive,–,–,–
CO/C=C(/C(=O)OC)c1ccccc1COc1cccc(C2=NN(C(C)=O)C(c3ccccc3OC)C2)c1 (centres undefined),–,–,≥ 80%,≥ 80%,–,–,inactive,inactive,–,–,–
